From patent publication US20090257987A1, “Method of generating dopamine-secreting cells” (Ramot At Tel Aviv University Ltd., priority 2008, published 2009)

Key:
[1] = system: human MSCs; experiment: Cell death in culture on supplementation of antioxidants; format: cell-based; settings: antioxidant supplementation of differentiation medium; data not shown
Method: (§1) Induction of differentiation: The differentiation protocol was composed of 2 steps. In step 1, cells were transferred to serum-free medium (DMEM) supplemented with 2 mM glutamine, 100 μg/ml streptomycin, 100 units/ml penicillin, 12.5 units/ml nystatin (Biological Industries), N2 supplement (Invitrogen, New Haven, Conn.) and 20 ng/ml fibroblast growth factor 2 and epidermal growth factor (both from R&D Systems, Minneapolis, Minn.) for 48-72 hours. In step 2, the medium was changed to Basic induction medium containing Neurobasal, B27 (both from Invitrogen), in addition to 1 mM dibutyryl cyclic AMP (dbcAMP), 3-isobutyl-1-methyl-xanthine (IBMX), and 200 μM ascorbic acid (all from Sigma, St Louis, Mo.). The following factors were added to the Basic induction medium in different combinations: brain-derived neurotrophic factor (BDNF; 50 ng/ml), glial-derived neurotrophic factor (GDNF;10 ng/ml), neurturin (100 ng/ml), neurotrophin 3 (NT3; 50 ng/ml), and fibroblast growth factor 8 (FGF8; 100 ng/ml (all from Cytolab, Rehovot, Israel); transforming growth factor β3 (TGFβ3; 2 ng/ml), sonic hedgehog (Shh; 500 ng/ml, both from R&D); estrogen (0.1 μM, Sigma); and all-trans-retinoic acid (RA; 0.1 μM, Sigma).

[2] = system: human MSCs; experiment: Western blot analysis of TH protein expression after differentiation protocols; format: cell-based; settings: result in words
Method: MSC isolation, culture, and characterization: Fresh bone marrow aspirates harvested from the iliac crests of adult donors (age 19-76) were diluted with Hanks' balanced salt solution. Mononuclear cells were isolated by centrifugation in Unisep-Maxi tubes (Novamed, Jerusalem, Israel) by density gradient. The cells were then plated in Dulbecco's Modified Eagle's Medium (DMEM) supplemented with 15% fetal bovine serum (FBS), 2 mM glutamine, 100 μg/ml streptomycin, 100 units/ml penicillin, 12.5 units/ml nystatin (Biological Industries, Beit HaEmek, Israel) in polystyrene plastic 75-cm^2 tissue-culture flasks. After 24 hours, nonadherent cells were removed. The medium was changed every 3-4 days. Adherent cells were cultured to 70%-90% confluence and reseeded at a density of 5,000-10,000 cells/cm^2. The cells were maintained at 37° C. in a humidified 5% CO2 incubator. The MSCs were characterized for their cell-surface phenotype and their mesenchymal differentiation capacity, as previously described (Blondheim er al., 2006, Stem Cells Dev 15:141-164).
as §1
Western blot: Total protein was extracted by suspending the harvested cells in lysis buffer containing 10 mM Tris base (U.S. Biochemical Corporation, Cleveland, Ohio), 5 mM EDTA (Merck, Whitehouse Station, N.J.), 140 mM sodium chloride (NaCl; BioLab, Jerusalem, Israel), 10 mM sodium fluoride (NaF; Sigma), 0.5% NP 40 (U.S. Biochemical Corporation), and 1 μM phenylmethylsulfonyl fluoride (PMSF; Sigma). Following incubation on ice for 30 minutes, the mixture was centrifuged and the supernatants were collected. Protein content was determined by the BCA protein assay kit (Pierce, Rockford, Ill.). Twenty-five micrograms of protein from each sample were subjected to sodium dodecyl-sulfate (SDS)-polyacrylamide gel electrophoresis (PAGE) (12.5% acrylamide), followed by electrophoretic transfer to nitrocellulose membrane (Schleicher & Schuell, Dassel, Germany). Membranes were probed by mouse anti-TH (1:10,000, Sigma) and mouse anti β-actin (1:10,000, Chemicon, Billerica, Mass.) and then by goat anti-mouse horseradish peroxidase conjugated antibody (1:10,000) (Jackson, West Grove, Pa.) and rabbit anti-emerin (1:5,000, Santa Cruz Biotechnology, Santa Cruz, Calif.), followed by goat anti-rabbit horseradish peroxidase conjugated secondary antibody (1:10,000, Sigma). Adequate controls included HeLa cells (ATCC, Manassas, Va.) as negative control and neuroblastoma M17 cells (BE (2)-M17, ATCC) as positive control. Proteins of interest were detected using the enhanced Super Signal® chemiluminescent detection kit (Pierce).

| Molecule | cell death in the culture [1] | TH protein expression level normalized to actin [2] |
| --- | --- | --- |
| COc1ccc(O)c(C(C)(C)C)c1 [BHA, butylated hydroxyanisole, reference compound] | higher levels of cell death | did not facilitate upregulation |
| CC(=O)N[C@@H](CS)C(=O)O [NAC, N-acetylcysteine, reference compound] | higher levels of cell death | did not facilitate upregulation |
| estrogen [+estrogen, reference compound] |  | directly affected the TH protein expression level |
| sonic hedgehog [+SHH] |  | directly affected the TH protein expression level |
| transforming growth factor β3 (protein, UniProt P10600 301-412, looked up, transforming growth factor β3 (2 ng/ml) added to the Basic induction medium) Transforming growth factor …: ALDTNYCFRNLEENCCVRPLYIDFRQDLGWKWVHEPKGYYANFCSGPCPYLRSADTTHSTVLGLYNTLNPEASASPCCVPQDLEPLTILYYVGRTPKVEQLSNMVVKSCKCS |  | directly affected the TH protein expression level |
| glial-derived neurotrophic factor (protein, UniProt P39905 78-211, looked up, glial-derived neurotrophic factor (10 ng/ml) added to the Basic induction medium) Glial cell line-derived …: SPDKQMAVLPRRERNRQAAAANPENSRGKGRRGQRGKNRGCVLTAIHLNVTDLGLGYETKEELIFRYCSGSCDAAETTYDKILKNLSRNRRLVSDKVGQACCRPIAFDDDLSFLDDNLVYHILRKHSAKRCGCI |  | directly affected the TH protein expression level |
